Laboratory results from PubChem BioAssay (NCI).
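The compound was tested at five concentrations on cells cultured in 96-well plates, with a 48-hour exposure period. GI50: concentration for 50% inhibition of growth. TGI: concentration producing complete growth inhibition.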

How the values were obtained:
Test in all cases: DTP human tumour cell line panel, 48 h
SN12C renal = tested on: SN12C renal
ACHN renal = tested on: ACHN renal
CAKI-1 renal = tested on: CAKI-1 renal
MDA-N = tested on: MDA-N
UO-31 renal = tested on: UO-31 renal
KM12 colon = tested on: KM12 colon
DU-145 prostate = tested on: DU-145 prostate
OVCAR-5 ovarian = tested on: OVCAR-5 ovarian
NCI/ADR-RES ovarian = tested on: NCI/ADR-RES ovarian
SR leukemia = tested on: SR leukemia
A549 NSCLC = tested on: A549 NSCLC
SW-620 colon = tested on: SW-620 colon
HOP-62 NSCLC = tested on: HOP-62 NSCLC
HOP-92 NSCLC = tested on: HOP-92 NSCLC
UACC-62 melanoma = tested on: UACC-62 melanoma
HT29 colon = tested on: HT29 colon
PC-3 prostate = tested on: PC-3 prostate

SMILES	TGI (SN12C renal)	TGI (ACHN renal)	TGI (CAKI-1 renal)	TGI (MDA-N)	TGI (UO-31 renal)	TGI (KM12 colon)	TGI (DU-145 prostate)	TGI (OVCAR-5 ovarian)	TGI (NCI/ADR-RES ovarian)	TGI (SR leukemia)	TGI (A549 NSCLC)	TGI (SW-620 colon)	TGI (HOP-62 NSCLC)	TGI (HOP-92 NSCLC)	TGI (UACC-62 melanoma)	TGI (HT29 colon)	TGI (PC-3 prostate)	GI50 (SN12C renal)	GI50 (HOP-62 NSCLC)	GI50 (UACC-62 melanoma)
N#CC1=C(N)OC(c2ccc([N+](=O)[O-])cc2)C1(C#N)C#N (centres undefined)	32.2 µM	23.8 µM	13 µM	24.6 µM	11.5 µM	> 48.4 µM	32.1 µM	41.8 µM	51.7 µM	41.7 µM	> 93.3 µM	33.9 µM	> 53 µM	21.9 µM	24.3 µM	22.9 µM	34.7 µM			
CCOC(=O)c1[nH]c2ccccc2c1C(=O)C[C@H](NC(=O)C(F)(F)F)C(=O)OC	> 100 µM	> 100 µM	> 100 µM	> 100 µM	> 100 µM	> 100 µM	> 100 µM	> 100 µM	> 100 µM	> 100 µM	> 100 µM	> 100 µM	> 100 µM	> 100 µM		> 100 µM	> 100 µM			
O=S(CCCl)c1c2ccccc2nc2ccccc12 (centres undefined)	88.7 µM	> 100 µM	80.5 µM	> 100 µM	> 100 µM	> 100 µM	> 100 µM	> 100 µM	> 100 µM	> 100 µM	> 100 µM	> 100 µM	> 100 µM	> 100 µM	> 100 µM	> 100 µM	> 100 µM			
CC(C)NC(=O)OCCN=C1c2ccccc2CCc2ccccc21	46.2 µM	68.4 µM	> 100 µM	39.8 µM	58.7 µM	> 100 µM	88.9 µM	82.9 µM	99.5 µM	53 µM	> 100 µM	> 100 µM	70.1 µM	55 µM	40.8 µM	47.6 µM	62.4 µM			
CC(=O)Oc1cc2c(cc1OC(C)=O)[C@H]1CC[C@]3(C)[C@@H](OC(C)=O)CC[C@H]3[C@@H]1CC2	20.4 µM	16.5 µM	12.5 µM	16.5 µM	13 µM	23.4 µM	38.9 µM	24.2 µM	29.5 µM	5.77 µM	24.2 µM	15.4 µM	26.7 µM	5.3 µM	13.1 µM	19.3 µM	25.5 µM	5.06 µM	4.81 µM	2.48 µM
Cc1cc(C)c2c(=O)n(CN3CCC(O)(c4ccccc4)CC3)sc2n1	86.2 µM	37.9 µM	> 100 µM	38.3 µM	33.8 µM	> 100 µM	> 100 µM	68.7 µM	> 100 µM	82.8 µM	> 100 µM	69.5 µM	> 100 µM	> 100 µM	> 100 µM	98.9 µM	> 100 µM			
COc1cc2c(c3c1c(=O)c1ccccc1n3C)C=CC1(CCCCC1)O2	> 10 µM	> 10 µM	> 2.29 µM	8.08 µM	0.255 µM	> 2.21 µM	> 10 µM	> 10 µM	> 10 µM	6.39 µM	4.43 µM	> 10 µM	> 9.54 µM	9.77 µM	9.86 µM	> 10 µM	> 10 µM			
COc1ccc(/C=C/C(=O)N[C@@H]2C(=O)N3[C@@H]2SC(C)(C)[C@@H]3C(=O)O)cc1	> 100 µM	> 100 µM	> 100 µM	> 100 µM	> 100 µM	> 100 µM	> 100 µM	> 100 µM	> 100 µM	> 100 µM	> 100 µM	> 100 µM	> 100 µM	> 100 µM	> 100 µM	> 100 µM	> 100 µM			
CCOP(=O)(OCC)/C(C#N)=C/c1cccn1CC(C)C	> 100 µM	> 100 µM	> 100 µM	> 100 µM	> 100 µM	> 100 µM	> 100 µM	> 100 µM	> 100 µM	> 100 µM	> 100 µM	> 100 µM	> 100 µM	> 100 µM	> 100 µM	> 100 µM	> 100 µM			
NCCCN1CCN(CC(=O)O)CCN(CCCN)CCN(CC(=O)O)CC1	> 100 µM	> 100 µM	> 100 µM	> 100 µM	> 100 µM	> 100 µM	> 100 µM	> 93.8 µM	> 100 µM	> 100 µM	> 100 µM	> 100 µM	> 100 µM	> 100 µM	> 100 µM	> 100 µM	> 100 µM			
Cc1c2c(n(Cc3ccccn3)c1C)NN=C(C#N)S2(=O)=O	> 100 µM	> 100 µM	> 100 µM	> 100 µM	> 100 µM	> 100 µM	> 100 µM	> 100 µM	> 100 µM	> 100 µM	> 100 µM	> 100 µM	> 100 µM	> 100 µM	> 100 µM	> 100 µM	> 100 µM			
O=c1[nH]nc(Cc2ccc(Cl)cc2)n1/N=C\CC/C=N\n1c(Cc2ccc(Cl)cc2)n[nH]c1=O	> 100 µM	> 100 µM	> 100 µM	> 100 µM	> 100 µM	> 100 µM	> 100 µM	> 100 µM	> 66.3 µM	14.8 µM	> 100 µM	> 100 µM	27.5 µM	> 100 µM	45.7 µM	> 100 µM	> 100 µM			
COc1ccccc1Cn1nc(OC)c2cc([N+](=O)[O-])ccc21	> 100 µM	> 100 µM	> 53.6 µM	> 100 µM	> 79.6 µM	> 100 µM	> 100 µM	> 100 µM	> 100 µM	> 100 µM	> 100 µM	> 100 µM	20.3 µM	33.8 µM		> 100 µM	> 100 µM			
COc1ccc2[nH]c3c(c2c1)COc1ccccc1C3=O	> 100 µM	> 100 µM	> 100 µM	> 100 µM	> 100 µM	> 100 µM	> 100 µM	> 100 µM	> 100 µM	> 100 µM	> 100 µM	> 100 µM	> 100 µM	> 100 µM	> 100 µM	> 100 µM	> 100 µM			
